# Literature values in patent US20140356424A1, “COMPOSITION FOR TREATMENT OR REDUCTION OF SYMPTOMS RELATED TO PREMENSTRUAL SYNDROME (PMS), PREMENSTRUAL DISPHORIC DISORDER (PMDD), PREMENOPAUSE, MENOPAUSE OR FEMALE HORMONAL DISORDERS, IN A PHARMACEUTICAL COMPOSITION CONTAINING SAID FORM, AND PROCESS FOR PRODUCING SAID PHARMACEUTICAL FORM AND USE …” (EMS S.A., priority 2013, published 2014).
# Columns and labels:
# [1] = test system: women with a diagnosis of PMS; conditions: calcium carbonate 1.0 g/day, after three months
# premenstrual symptoms = conditions: daily supplement of 200 mg of magnesium (as MgO)
Compound,"complaints of headache, anxiety, agitation and irritability [1]",symptom of fatigue (questionnaire) ([1]; placebo 52.3%) [%],symptom of changes in appetite (questionnaire) ([1]; placebo 75%) [%],effect on severity of premenstrual symptoms (premenstrual symptoms)
O=C([O-])[O-].[Ca+2] [calcium carbonate],significant changes were not observed,36,52.7,
"[O]=[Mg] [magnesium (as MgO), magnesium oxide]",,,,reduced mild premenstrual symptoms
